Measured values from PubChem BioAssay (NCI).
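Tested at 5 concentrations; 48 h exposure; 96-well plates; endpoints linearly interpolated, else capped at highest concentration. Here, GI50 denotes the concentration required for 50% inhibition of growth. Definition used: TGI = concentration required for complete inhibition of growth.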

How the values were obtained:
Assay in all cases: inhibition of tumour cell growth, NCI panel, 48 h
HCT-15 colon = test system: HCT-15 colon
SF-295 CNS = test system: SF-295 CNS
M14 melanoma = test system: M14 melanoma
SN12C renal = test system: SN12C renal
U251 CNS = test system: U251 CNS
HS 578T breast = test system: HS 578T breast
SF-539 CNS = test system: SF-539 CNS
K-562 leukemia = test system: K-562 leukemia
RXF 393 renal = test system: RXF 393 renal
MDA-MB-468 breast = test system: MDA-MB-468 breast
SK-MEL-28 melanoma = test system: SK-MEL-28 melanoma
CAKI-1 renal = test system: CAKI-1 renal
MDA-MB-435 = test system: MDA-MB-435
IGROV1 ovarian = test system: IGROV1 ovarian
NCI-H226 lung = test system: NCI-H226 lung
HOP-92 NSCLC = test system: HOP-92 NSCLC
OVCAR-4 ovarian = test system: OVCAR-4 ovarian
HCC-2998 colon = test system: HCC-2998 colon
HL-60(TB) leukemia = test system: HL-60(TB) leukemia
HT29 colon = test system: HT29 colon
NCI-H23 lung = test system: NCI-H23 lung
SK-MEL-2 melanoma = test system: SK-MEL-2 melanoma
HOP-62 NSCLC = test system: HOP-62 NSCLC
EKVX NSCLC = test system: EKVX NSCLC
SK-OV-3 ovarian = test system: SK-OV-3 ovarian
SW-620 colon = test system: SW-620 colon
DU-145 prostate = test system: DU-145 prostate
UACC-62 melanoma = test system: UACC-62 melanoma
LOX IMVI melanoma = test system: LOX IMVI melanoma
MCF7 breast = test system: MCF7 breast
A498 renal = test system: A498 renal
786-0 renal = test system: 786-0 renal
SK-MEL-5 melanoma = test system: SK-MEL-5 melanoma
OVCAR-5 ovarian = test system: OVCAR-5 ovarian
SF-268 CNS = test system: SF-268 CNS
MDA-MB-231 breast = test system: MDA-MB-231 breast
NCI-H522 lung = test system: NCI-H522 lung
PC-3 prostate = test system: PC-3 prostate
SR leukemia = test system: SR leukemia
BT-549 breast = test system: BT-549 breast
UACC-257 melanoma = test system: UACC-257 melanoma
CCRF-CEM leukemia = test system: CCRF-CEM leukemia
SNB-19 CNS = test system: SNB-19 CNS
HCT-116 colon = test system: HCT-116 colon
OVCAR-8 ovarian = test system: OVCAR-8 ovarian
MOLT-4 leukemia = test system: MOLT-4 leukemia
NCI-H460 lung = test system: NCI-H460 lung
T-47D breast = test system: T-47D breast
TK-10 renal = test system: TK-10 renal
OVCAR-3 ovarian = test system: OVCAR-3 ovarian
A549 NSCLC = test system: A549 NSCLC
MALME-3M melanoma = test system: MALME-3M melanoma
KM12 colon = test system: KM12 colon
RPMI-8226 leukemia = test system: RPMI-8226 leukemia
UO-31 renal = test system: UO-31 renal
ACHN renal = test system: ACHN renal
COLO 205 colon = test system: COLO 205 colon

SMILES: Cn1cc(-c2cc3nc(-c4cn(C)c5ncc(Br)cc45)cc(N)n3n2)c2cc(F)ccc21
- GI50 (HCT-15 colon): 3.73 µM
- TGI (HCT-15 colon): 16.4 µM
- GI50 (SF-295 CNS): 1800 nM
- TGI (SF-295 CNS): 3.82 µM
- GI50 (M14 melanoma): 4.05 µM
- TGI (M14 melanoma): 14.9 µM
- GI50 (SN12C renal): 4.41 µM
- TGI (SN12C renal): 19.8 µM
- GI50 (U251 CNS): 3.23 µM
- TGI (U251 CNS): 11.5 µM
- GI50 (HS 578T breast): 10.7 µM
- TGI (HS 578T breast): 48.6 µM
- GI50 (SF-539 CNS): 3.54 µM
- TGI (SF-539 CNS): 13 µM
- GI50 (K-562 leukemia): 6 µM
- TGI (K-562 leukemia): > 100 µM
- GI50 (RXF 393 renal): 2540 nM
- TGI (RXF 393 renal): 5.96 µM
- GI50 (MDA-MB-468 breast): 1950 nM
- TGI (MDA-MB-468 breast): 4.19 µM
- GI50 (SK-MEL-28 melanoma): 3.9 µM
- TGI (SK-MEL-28 melanoma): 14.4 µM
- GI50 (CAKI-1 renal): 8.11 µM
- TGI (CAKI-1 renal): 22.5 µM
- GI50 (MDA-MB-435): 6.19 µM
- TGI (MDA-MB-435): 20.1 µM
- GI50 (IGROV1 ovarian): 3.91 µM
- TGI (IGROV1 ovarian): 14.1 µM
- GI50 (NCI-H226 lung): 5.36 µM
- TGI (NCI-H226 lung): 19.8 µM
- GI50 (HOP-92 NSCLC): 11.3 µM
- TGI (HOP-92 NSCLC): 33.8 µM
- GI50 (OVCAR-4 ovarian): 4.51 µM
- TGI (OVCAR-4 ovarian): 19.3 µM
- GI50 (HCC-2998 colon): 7.19 µM
- TGI (HCC-2998 colon): 27.6 µM
- GI50 (HL-60(TB) leukemia): 12.1 µM
- TGI (HL-60(TB) leukemia): 73.1 µM
- GI50 (HT29 colon): 3.18 µM
- TGI (HT29 colon): 11.3 µM
- GI50 (NCI-H23 lung): 7.44 µM
- TGI (NCI-H23 lung): 21.3 µM
- GI50 (SK-MEL-2 melanoma): 11.4 µM
- TGI (SK-MEL-2 melanoma): 24.2 µM
- GI50 (HOP-62 NSCLC): 7.8 µM
- TGI (HOP-62 NSCLC): 24.3 µM
- GI50 (EKVX NSCLC): 11.4 µM
- TGI (EKVX NSCLC): 29.7 µM
- GI50 (SK-OV-3 ovarian): 15 µM
- TGI (SK-OV-3 ovarian): 32.4 µM
- GI50 (SW-620 colon): 6.46 µM
- TGI (SW-620 colon): 21.5 µM
- GI50 (DU-145 prostate): 5.16 µM
- TGI (DU-145 prostate): 19.3 µM
- GI50 (UACC-62 melanoma): 2640 nM
- TGI (UACC-62 melanoma): 10.9 µM
- GI50 (LOX IMVI melanoma): 1910 nM
- TGI (LOX IMVI melanoma): 3.47 µM
- GI50 (MCF7 breast): 3.6 µM
- TGI (MCF7 breast): 12.8 µM
- GI50 (A498 renal): 13.5 µM
- TGI (A498 renal): 30.2 µM
- GI50 (786-0 renal): 4.64 µM
- TGI (786-0 renal): 17 µM
- GI50 (SK-MEL-5 melanoma): 12.5 µM
- TGI (SK-MEL-5 melanoma): 25.4 µM
- GI50 (OVCAR-5 ovarian): 12.5 µM
- TGI (OVCAR-5 ovarian): 29.4 µM
- GI50 (SF-268 CNS): 19.2 µM
- TGI (SF-268 CNS): 79.8 µM
- GI50 (MDA-MB-231 breast): 2900 nM
- TGI (MDA-MB-231 breast): 10 µM
- GI50 (NCI-H522 lung): 5.61 µM
- TGI (NCI-H522 lung): 21.6 µM
- GI50 (PC-3 prostate): 10.4 µM
- TGI (PC-3 prostate): 46.8 µM
- GI50 (SR leukemia): 4.58 µM
- TGI (SR leukemia): > 100 µM
- GI50 (BT-549 breast): 10.9 µM
- TGI (BT-549 breast): 23.6 µM
- GI50 (UACC-257 melanoma): 7.29 µM
- TGI (UACC-257 melanoma): 21.4 µM
- GI50 (CCRF-CEM leukemia): 8.29 µM
- TGI (CCRF-CEM leukemia): > 100 µM
- GI50 (SNB-19 CNS): 11 µM
- TGI (SNB-19 CNS): 23.8 µM
- GI50 (HCT-116 colon): 15 µM
- TGI (HCT-116 colon): 32.3 µM
- GI50 (OVCAR-8 ovarian): 6.2 µM
- TGI (OVCAR-8 ovarian): 20.9 µM
- GI50 (MOLT-4 leukemia): 5.98 µM
- TGI (MOLT-4 leukemia): > 100 µM
- GI50 (NCI-H460 lung): 3.44 µM
- TGI (NCI-H460 lung): 11.6 µM
- GI50 (T-47D breast): 3.25 µM
- TGI (T-47D breast): 15.6 µM
- GI50 (TK-10 renal): 4.92 µM
- TGI (TK-10 renal): 18.8 µM
- GI50 (OVCAR-3 ovarian): 11.1 µM
- TGI (OVCAR-3 ovarian): 27 µM
- GI50 (A549 NSCLC): 3.37 µM
- TGI (A549 NSCLC): 16.8 µM
- GI50 (MALME-3M melanoma): 3.43 µM
- TGI (MALME-3M melanoma): 12.1 µM
- GI50 (KM12 colon): 12.9 µM
- TGI (KM12 colon): 49 µM
- GI50 (RPMI-8226 leukemia): 10.1 µM
- TGI (RPMI-8226 leukemia): > 100 µM
- GI50 (UO-31 renal): 12.2 µM
- TGI (UO-31 renal): 25.4 µM
- GI50 (ACHN renal): 3.72 µM
- TGI (ACHN renal): 13.2 µM
- GI50 (COLO 205 colon): 12.6 µM
- TGI (COLO 205 colon): 40.7 µM
